{
  "source": "patent US20250064955A1",
  "about": "“DRUG CONJUGATES AND METHODS OF PREPARING AND USING THE SAME” (priority 2021, published 2025)",
  "key": {"[1]": {"tested_on": "HCC1954 breast ductal carcinoma cells", "experiment": "In vitro potency, cell viability (Cell Titer Glo 2.0), HCC1954", "format": "cell-based", "conditions": "Homo sapiens, HCC1954, 120 h", "description": "(§1) HCC1954 breast ductal carcinoma or SK-BR-3 cells (ATCC, Manassas, VA, USA) were seeded into 384-well white-walled culture plates and allowed to adhere for 2-4 hours. Cells were then treated with test articles at least in duplicate by addition of 5-fold serially diluted test articles prepared at 2× final concentration and incubated at 37° C. for 120 hours. Cell viability following treatment was determined by Cell Titer Glo 2.0 Assay (Promega, Madison, WI, USA) and normalized to non-treated controls. Dose-response relationships were analyzed using GraphPad Prism (La Jolla, CA, USA), and IC50 values were derived from non-linear regression analyses using a 4-parameter logistic equation."}, "SK-BR-3 cells": {"tested_on": "SK-BR-3 cells", "experiment": "In vitro potency, cell viability (Cell Titer Glo 2.0), SK-BR-3", "format": "cell-based", "conditions": "Homo sapiens, SK-BR-3, 120 h", "description": "as §1"}},
  "note": "Where a SMILES comes first, the peptide text is derived from it. [ ]: non-standard residue; d: D form. The star is where a group is joined. Dolaproine = CO[C@@H]([C@@H]1CCCN1)[C@@H](C)C(=O)O; Dil = CC[C@H](C)[C@H](NC)[C@@H](CC(=O)O)OC; X1 = C[C@@H](N*)[C@@H](O)c1ccccc1; NMeV = CN[C@H](C(=O)O)C(C)C",
  "data": [
    {"smiles": "CC[C@H](C)[C@@H]([C@@H](CC(=O)N1CCC[C@H]1[C@H](OC)[C@@H](C)C(=O)N[C@H](C)[C@@H](O)c1ccccc1)OC)N(C)C(=O)[C@@H](NC(=O)[C@@H](NC)C(C)C)C(C)C", "note": "[MMAE, (S)-N-((3R,4S,5S)-1-((S)-2-((1R,2R)-3-(((1S,2R)-1-hydroxy-1-phenylpropan-2-yl)amino)-1-methoxy-2-methyl-3-oxopropyl)pyrrolidin-1-yl)-3-methoxy-5-methyl-1-oxoheptan-4-yl)-N,3-dimethyl-2-((S)-3-methyl-2-(methylamino)butanamido)butanamide] (H-[NMeV]V[Dil][Dolaproine]-X1)", "values": [
      {"measurement": "IC50", "setting": "[1]", "value": 0.21, "unit": "nM"},
      {"measurement": "IC50", "setting": "SK-BR-3 cells", "value": 0.127, "unit": "nM"}
    ]}
  ]
}
